Test results as given in ChEMBL document CHEMBL1201862, “PubChem BioAssay data set” (2004).
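In this assay, cells in 96-well plates receive the compound at five concentrations for 48 hours. Endpoints are linearly interpolated between the surrounding concentrations. GI50 marks 50% less growth.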 Calls of active or inactive are those of the source. Cut-off read from the data, not from the text of the source: active = GI50 up to about 1.1 µM and inactive = higher.

Legend:
Assay in all cases: growth of human tumour cells (NCI), 48 h
HCT-116 = system: HCT-116
NCI-H23 = system: NCI-H23
HL-60 = system: HL-60
HCT-15 = system: HCT-15
SN12C = system: SN12C
DLD-1 = system: DLD-1
SF-539 = system: SF-539
IGROV-1 = system: IGROV-1
NCI-H226 = system: NCI-H226
K562 = system: K562
SK-MEL-5 = system: SK-MEL-5
HT-29 = system: HT-29
A549 = system: A549
HCC 2998 = system: HCC 2998
SNB-19 = system: SNB-19
SF-295 = system: SF-295
RXF 393 = system: RXF 393
SR = system: SR
A498 = system: A498
UO-31 = system: UO-31

CCOC(=O)CCC(NC(=O)c1ccc(/N=C/c2nc3ccccc3nc2-c2ccccc2)cc1)C(=O)OCC (stereo not given)
GI50 (HCT-116): > 100 µM (inactive)
GI50 (NCI-H23): > 100 µM (inactive)
GI50 (HL-60): > 100 µM (inactive)
GI50 (HCT-15): > 100 µM
GI50 (SN12C): 79.1 µM (inactive)
GI50 (DLD-1): > 100 µM (inactive)
GI50 (SF-539): > 100 µM (inactive)
GI50 (IGROV-1): > 100 µM (inactive)
GI50 (NCI-H226): > 100 µM (inactive)
GI50 (K562): > 100 µM (inactive)
GI50 (SK-MEL-5): > 100 µM (inactive)
GI50 (HT-29): > 100 µM (inactive)
GI50 (A549): > 100 µM (inactive)
GI50 (HCC 2998): > 100 µM (inactive)
GI50 (SNB-19): > 100 µM (inactive)
GI50 (SF-295): > 100 µM (inactive)
GI50 (RXF 393): 64.9 µM (inactive)
GI50 (SR): > 100 µM (inactive)
GI50 (A498): > 100 µM (inactive)
GI50 (UO-31): > 100 µM (inactive)

COC1=CC(=O)NCCN1
GI50 (HCT-116): 74.3 µM (inactive)
GI50 (NCI-H23): > 100 µM (inactive)
GI50 (HL-60): 21 µM (inactive)
GI50 (HCT-15): 52.2 µM
GI50 (SN12C): > 100 µM (inactive)
GI50 (DLD-1): > 100 µM (inactive)
GI50 (SF-539): > 100 µM (inactive)
GI50 (IGROV-1): > 100 µM (inactive)
GI50 (NCI-H226): > 100 µM (inactive)
GI50 (K562): > 100 µM (inactive)
GI50 (SK-MEL-5): > 100 µM (inactive)
GI50 (HT-29): > 100 µM (inactive)
GI50 (A549): > 100 µM (inactive)
GI50 (HCC 2998): > 100 µM (inactive)
GI50 (SNB-19): > 100 µM (inactive)
GI50 (SF-295): > 100 µM (inactive)
GI50 (RXF 393): > 100 µM (inactive)
GI50 (SR): > 100 µM (inactive)
GI50 (A498): > 100 µM (inactive)
GI50 (UO-31): > 100 µM (inactive)

CCOCN1COCN/C1=N/C#N
GI50 (HCT-116): > 100 µM (inactive)
GI50 (NCI-H23): > 100 µM (inactive)
GI50 (HL-60): > 100 µM (inactive)
GI50 (HCT-15): 58.5 µM
GI50 (SN12C): > 100 µM (inactive)
GI50 (DLD-1): > 100 µM (inactive)
GI50 (SF-539): > 100 µM (inactive)
GI50 (IGROV-1): > 100 µM (inactive)
GI50 (NCI-H226): > 100 µM (inactive)
GI50 (K562): > 100 µM (inactive)
GI50 (SK-MEL-5): > 100 µM (inactive)
GI50 (HT-29): > 100 µM (inactive)
GI50 (A549): 31.8 µM (inactive)
GI50 (HCC 2998): > 100 µM (inactive)
GI50 (SNB-19): > 100 µM (inactive)
GI50 (SF-295): > 100 µM (inactive)
GI50 (RXF 393): 0.094 µM (active)
GI50 (SR): 25.8 µM (inactive)
GI50 (A498): > 100 µM (inactive)
GI50 (UO-31): > 100 µM (inactive)

c1cc2n(n1)CCN2
GI50 (HCT-116): 1950 µM (inactive)
GI50 (NCI-H23): 1060 µM (inactive)
GI50 (HL-60): 238 µM (inactive)
GI50 (HCT-15): 2140 µM
GI50 (SN12C): 1240 µM (inactive)
GI50 (DLD-1): 5420 µM (inactive)
GI50 (SF-539): 646 µM (inactive)
GI50 (IGROV-1): 7380 µM (inactive)
GI50 (NCI-H226): 1960 µM (inactive)
GI50 (K562): 2000 µM (inactive)
GI50 (SK-MEL-5): 847 µM (inactive)
GI50 (HT-29): 3130 µM (inactive)
GI50 (A549): 1050 µM (inactive)
GI50 (HCC 2998): 1690 µM (inactive)
GI50 (SNB-19): 4030 µM (inactive)
GI50 (SF-295): 348 µM (inactive)
GI50 (RXF 393): 1390 µM (inactive)
GI50 (SR): 733 µM (inactive)
GI50 (A498): 1150 µM (inactive)
GI50 (UO-31): 1320 µM (inactive)

O=S1(=O)CCN(c2ccccc2CC(c2c[nH]c3ccccc23)c2c[nH]c3ccccc23)CC1
GI50 (HCT-116): 4.47 µM (inactive)
GI50 (NCI-H23): 6.67 µM (inactive)
GI50 (HL-60): 1.12 µM (active)
GI50 (HCT-15): 4.94 µM
GI50 (SN12C): 5.02 µM (inactive)
GI50 (DLD-1): 4.37 µM (inactive)
GI50 (SF-539): 11.9 µM (inactive)
GI50 (IGROV-1): 6.93 µM (inactive)
GI50 (NCI-H226): 12.7 µM (inactive)
GI50 (K562): 3.08 µM (inactive)
GI50 (SK-MEL-5): 6.61 µM (inactive)
GI50 (HT-29): 4.59 µM (inactive)
GI50 (A549): 8.41 µM (inactive)
GI50 (HCC 2998): 3.64 µM (inactive)
GI50 (SNB-19): 12.3 µM (inactive)
GI50 (SF-295): 8.02 µM (inactive)
GI50 (RXF 393): 7.03 µM (inactive)
GI50 (SR): 3.08 µM (inactive)
GI50 (A498): 10 µM (inactive)
GI50 (UO-31): 7.41 µM (inactive)

COC(=O)c1ncc2c(=O)[nH]c3ccccc3c2c1C(=O)OC
GI50 (HCT-116): > 100 µM (inactive)
GI50 (NCI-H23): > 100 µM (inactive)
GI50 (HL-60): > 100 µM (inactive)
GI50 (HCT-15): > 100 µM
GI50 (SN12C): > 100 µM (inactive)
GI50 (DLD-1): > 100 µM (inactive)
GI50 (SF-539): > 100 µM (inactive)
GI50 (IGROV-1): > 100 µM (inactive)
GI50 (NCI-H226): > 100 µM (inactive)
GI50 (K562): > 100 µM (inactive)
GI50 (SK-MEL-5): > 100 µM (inactive)
GI50 (HT-29): > 100 µM (inactive)
GI50 (A549): > 100 µM (inactive)
GI50 (HCC 2998): > 100 µM (inactive)
GI50 (SNB-19): > 100 µM (inactive)
GI50 (SF-295): > 100 µM (inactive)
GI50 (RXF 393): > 100 µM (inactive)
GI50 (SR): > 100 µM (inactive)
GI50 (A498): > 100 µM (inactive)
GI50 (UO-31): > 100 µM (inactive)
